Measured values from patent US20210094919A1, “KRAS MUTANT PROTEIN INHIBITORS” (Jacobio Pharmaceuticals Co., Ltd., priority 2019, published 2021).

Molecular target: T1, HIS-KRAS (G12C, aa 2-185) (Homo sapiens, UniProt P01116, G12C)
T1 construct: HIS-KRAS (G12C, aa 2-185, Sino biological); purchased Sino biological
Experiment: SOS1 catalyzed nucleotide exchange assay (TR-FRET)
Assay type: biochemical
Conditions: GDP-loaded HIS-KRAS (G12C) pre-incubated with compound 1 hour, SOS1 ExD and BODIPY FL GTP added, 4 hours at 25° C.
Protocol: HIS-KRAS (G12C, aa 2-185, Sino biological) was diluted to 5 μM in EDTA buffer (20 mM HEPES, pH 7.4, 50 mM NaCl, 10 mM EDTA, 0.01% (v/v) Tween-20) and incubated for 30 min at 25° C. The EDTA pretreated HIS-KRAS (G12C) was diluted to 12 nM in assay buffer (25 mM HEPES, pH 7.4, 120 mM NaCl, 5 mM MgCl2, 1 mM DTT, 0.01% (v/v) Tween 20, 0.1% (w/v) BSA) containing 120 nM GDP (Sigma) and MAb Anti 6HIS-Tb cryptate Gold (Cisbio) and incubated for 1 hour at 25° C. to prepare GDP-loaded HIS-KRAS (G12C). The GDP-loaded HIS-KRAS (G12C) was pre-incubation with diluted compounds in a 384-well plate (Greiner) for 1 hour, then purified SOS1 ExD (Flag tag, aa 564-1049) and BODIPY™ FL GTP (Invitrogen) were added to the assay wells (Final concentration: 3 nM HIS-KRAS (G12C), 2 μM SOS1 ExD, 80 nM BODIPY™ FL GTP, 21 ng/mL MAb Anti 6HIS-Tb cryptate Gold) and incubated for 4 hours at 25° C. TR-FRET signals were then read on Tecan Spark multimode microplate reader. The parameters were F486: Excitation 340 (35) nm, Emission 486 (10) nm, Lag time 100 las, Integration time 200 las; F515: Excitation 340 (35) nm, Emission 515 (10) nm, Lag time 100 las, Integration time 200 las. TR-FRET ratios for each individual wells were calculated by equation: TR-FRET ratio=(Signal F515/Signal F486)*10000. Then the data were analyzed using a 4-parameter logistic model to calculate IC50 values.

T1 sequence (P01116 2-185 isoform P01116-2 G12C): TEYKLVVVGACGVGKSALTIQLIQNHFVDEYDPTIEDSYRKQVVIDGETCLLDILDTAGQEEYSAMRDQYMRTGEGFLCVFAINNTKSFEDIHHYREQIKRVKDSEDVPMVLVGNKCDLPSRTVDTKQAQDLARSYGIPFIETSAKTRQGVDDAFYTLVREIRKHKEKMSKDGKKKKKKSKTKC

Structure (SMILES)	IC50
C=CC(=O)N1[C@H](C)CN(c2c(C#N)c(OC[C@@H]3CCCN3C)nc3c2CCN(c2cccc4cccc(C)c24)C3)C[C@@H]1C [Compound 3, 4-((3S,5R)-4-acryloyl-3,5-dimethylpiperazin-1-yl)-7-(8-methylnaphthalen-1-yl)-2-(((S)-1-methylpyrrolidin-2-yl)methoxy)-5,6,7,8-tetrahydro-1,7-naphthyridine-3-carbonitrile]	> 1000 nM
C=CC(=O)N1CC(Nc2c(C#N)c(OC[C@@H]3CCCN3C)nc3c2CCN(c2cccc4cccc(C)c24)C3)C1 [Compound 4, (S)-4-((1-acryloylazetidin-3-yl)amino)-7-(8-methylnaphthalen-1-yl)-2-((1-methylpyrrolidin-2-yl)methoxy)-5,6,7,8-tetrahydro-1,7-naphthyridine-3-carbonitrile]	> 1000 nM
C=CC(=O)N1CCN(c2c(C#N)c(OC[C@@H]3CCCN3C)nc3c2CCN(c2cccc4cccc(C)c24)C3)CC1CC#N (stereo partly drawn) [Compound 1, 4-(4-acryloyl-3-(cyanomethyl)piperazin-1-yl)-7-(8-methylnaphthalen-1-yl)-2-(((S)-1-methylpyrrolidin-2-yl)methoxy)-5,6,7,8-tetrahydro-1,7-naphthyridine-3-carbonitrile]	53.1 nM
C=CC(=O)N1CCN(c2c(C#N)c(OC[C@@H]3CCCN3C)nc3c2CCN(c2cccc4cccc(C)c24)C3)CC1 [Compound 2, (S)-4-(4-acryloylpiperazin-1-yl)-7-(8-methylnaphthalen-1-yl)-2-((1-methylpyrrolidin-2-yl)methoxy)-5,6,7,8-tetrahydro-1,7-naphthyridine-3-carbonitrile]	> 1000 nM
C=CC(=O)N1CCN(c2c(C#N)c(OC[C@@H]3CCCN3C)nc3c2CCN(c2cccc4cccc(C)c24)C3)C[C@@H]1C [Compound 6, 4-((S)-4-acryloyl-3-methylpiperazin-1-yl)-7-(8-methylnaphthalen-1-yl)-2-(((S)-1-methylpyrrolidin-2-yl)methoxy)-5,6,7,8-tetrahydro-1,7-naphthyridine-3-carbonitrile]	> 1000 nM
C=CC(=O)N1CCN(c2c(C#N)c(OC[C@@H]3CCCN3C)nc3c2CCN(c2cccc4cccc(C)c24)C3)C[C@H]1C [Compound 5, 4-((R)-4-acryloyl-3-methylpiperazin-1-yl)-7-(8-methylnaphthalen-1-yl)-2-(((S)-1-methylpyrrolidin-2-yl)methoxy)-5,6,7,8-tetrahydro-1,7-naphthyridine-3-carbonitrile]	> 1000 nM
